Measured values as given in patent publication US20260027073A1, “USE OF SMALL-MOLECULE COMPOUND HAVING NAPHTHYLAMINE STRUCTURE” (HANGZHOU PHECDAMED CO., LTD., priority 2023, published 2026).

How the values were obtained:
[1] = tested on: rats of adenine induced kidney injury model; assay: Adenine-induced kidney injury; format: in vivo, SD rats; details: 15 mg/kg, 21 days; FIG. 12
[2] = tested on: LPS-induced acute lung injury mice; assay: Survival in LPS-induced acute lung injury; format: in vivo, C57 mice; details: 20 mg/kg intraperitoneal once a day; up to 9 days; FIG. 28
Protocol: The model was constructed as follows, male mice C57 aged 6-8 weeks and weighing 18-22 g were anesthetized and fixed, and then 20 mg/kg LPS (E.coil) was dissolved in 50 μl of PBS and dripped under direct laryngoscopic vision to form a model group. The experiment was divided into three groups, each having six mice, LPS group (model control group, airway drip of 50 μl LPS), LPS+20 mg/kg group (airway drip of 50 μl LPS, and given 20 mg/kg of TJ01-013 treatment), LPS+Sivelestat group (positive control group, airway drip of 50 μl LPS and given 5 mg/kg of Sivelestat treatment). The mode of administration was intraperitoneal injection, the volume of administration was 5 ml/kg, the frequency of administration was once a day, and the biological deaths and changes in body weights of the mice were observed and recorded every day, and the mice were regarded as physiologically dead if their body weights decreased by 20% or more compared with that before the administration of LPS. Survival curves were plotted based on deaths observed up to 9 days after administration.

APP/PS1 mice = assay: Cognitive dysfunction in APP/PS1 mice; format: in vivo
Protocol: Male transgenic APP/PS1 mice were purchased from the Model Animal Research Center of Nanjing University, and after being raised to 12 weeks old, the APP/PS1 mice were divided into three groups: normal C57 group (WT), model control group (APP/PS1+Vehicle), and TJ01-013 treatment group (APP/PST+TJ01-013). The mode of administration was by oral gavage, normal group and model control group were administered vehicle by oral gavage, the concentration of TJ01-013 was 30 mg/kg, the gavage volume was 5 ml/kg, the frequency of administration was once a day, and the administration period was 3 months. • (2) Water maze experiment
The water maze device is a circular pool (140 cm in diameter) filled with dissolved titanium dioxide water, keeping the water temperature at 22° C. A platform with a diameter of 12 cm was placed at a fixed position 1 cm below the water surface, and the mice were trained in four quadrants every day for five consecutive days. Each quadrant lasted 60 seconds or until the mice found the platform. […] All parameters were recorded by a video tracking system.
Mouse heart perfusion for brain extraction: APP/PS1 mice and control C57BL/6J mice were anesthetized, and after they became unconscious, the limbs were fixed on a dissection table in a fuming hood, and the abdominal skin was cut with scissors after alcohol disinfection to expose the liver. The diaphragm was quickly cut, and the heart was exposed by turning upward after clamping the xiphoid with hemostatic forceps. Prepared PBS was injected into the left ventricle, noting that the direction was toward the aorta. The peristaltic pump was turned on after opening the right auricle and the blood was drained at a low rate at first. When the heart stopped beating or the fluid pumped at the right auricle was clarified and colorless, the mouse liver can be seen to turn grayish white. The fur was cut open along the midline of the mouse hindbrain with scissors, and the skull was exposed, then forceps were inserted from the criss-cross of the mouse's brain shell, and scissors were used to assist in peeling off the skull, and then the intact whole brain was removed. The fresh mouse whole brain was halved and placed in a 5 mL centrifuge tube, and 4 mL of 4% paraformaldehyde fixative was added to fix for 24 h, sections were made for antigenic repair, incubated for 30 min with dropwise adding of BSA at a concentration of 3-5%, and stained overnight with polyclonal rabbit anti-GFAP antibody (1:100) and mouse anti-β-amyloid protein 1-16 antibody (1:100), and after the sections were washed in PBS three times, the corresponding fluorescent secondary antibody was added dropwise to cover the tissue, and the sections were incubated in dark for 1 h, the slides were washed and stained with DAPI staining solution added dropwisely for 10 min, and the sections were sealed with resin sealer, and finally imaged with Cytation3.
Mouse brain tissue homogenates were prepared according to the brain tissue homogenization method described in the Life Technologies ELISA Technical Guide. […]

SMILES: O=C(O)C[S+]([O-])c1cc(NS(=O)(=O)c2ccc(Br)cc2)c2ccccc2c1O (stereo not shown) [I-1]
- IL-1β level in kidney tissues [1]: tendency to be decreased
- survival rate [2]: significantly elevated
- time to find the platform (water maze) (APP/PS1 mice; 30 mg/kg oral gavage, 3 months, FIG. 42): significantly reduced
- astrocyte activation in the hippocampal region (GFAP) (APP/PS1 mice; FIG. 44): significantly reduced
- number and size of Aβ plaques (APP/PS1 mice; FIG. 44): significant decrease
- amount of Aβ in the brain tissues (Elisa) (APP/PS1 mice; FIG. 45): significantly decreased
- number of crossing over the platform (water maze) (APP/PS1 mice; vs APP/PS1 Vehicle group, FIG. 43): significantly larger
